Assays:
platelet aggregation = assay: Inhibitory activity on platelet aggregation (turbidimetry); format: cell-based, New Zealand White male rabbits; conditions: for Inhibition rate (%) ADP aggregation: 0.6 µg/mℓ ADP; for Inhibition rate (%) PAF aggregation: 5 x 10⁻⁹M PAF; for Inhibition rate (%) Collagen aggregation: 2 µg/mℓ collagen
Experimental: Blood was exsanguinated from New Zealand White male rabbits weighing from 2.5 to 3.0 kg and subjected to the test. Each test compound was dissolved in ethanol and prepared to be 1 x 10⁻⁵, 1 x 10⁻⁶ or 1 x 10⁻⁷M respectively. Each aggregation response was measured by turbidimetry. Concentration of aggregating agent was 2 µg/mℓ of collagen, 0.6 µg/mℓ of adenosine 5'-diphosphate (ADP) or 5 x 10⁻⁹M of platelet aggregating factor (PAF).
(§1) Inhibition rate was calculated by the following formula. [formula]

Slc-ddy male mice = assay: Activity on hypoxia induced in decapitation of mice (gasping time); format: in vivo; set-up: dose or concentration left out as unconfirmed; conditions: gasping time after decapitation, one hour after oral administration
Experimental: In each group, 3 Slc-ddy male mice (4 weeks) were employed. Each test compound was suspended or dissolved in a 0.5 % methyl cellulose solution. After the concentration was adjusted, the dose became […], the solution was administered orally. One hour after the administration, mice were decapitated and gasping time was measured.
as §1

[1] = test system: Aortae abdominalis of male Wister rats; assay: Anti-norepinephrine activity on rat abdominal aorta strip preparations (auto-Magnus apparatus); conditions: tension by norepinephrine (10⁻⁷M) regarded as 100
Experimental: Aortae abdominalis of male Wister rats (8-12 weeks) were delivered and cut in spiral-shape to be strip preparations. Each test compounds was disolved in DMSO. Then, the solution was diluted with distilled water and prepared to be desired concentration. Using an auto-Magnus apparatus, as to the vasoconstriction after adding norepinephrine, contractive forces were measured under the existence of the test compounds.

Slc: ddy male mice = assay: Activity on stress ulcers (restraint and water immersion); format: in vivo; conditions: length of ulcer in glandular stomach; 30 mg/kg orally; restrained and immersed in water of 23°C for 7 hours
Experimental: In each group, 5 Slc: ddy male mice (6 weeks) were employed. Each test compound was kneaded with Tween-80 followed by adding a 0.5 % solution of gum arabic to prepare 30 mg/10 mℓ solution (solution containing 1.5 % Tween-80 and 0.5 % gum arabic). Then, the preparation was administered orally in a rate of 30 mg/kg. After the administration, the mice were restrained and immersed in a water tank of 23°C for 7 hours. Then, length of the ulcer in the glandular stomach was measured by a stereoscopic microscope (x 10).

Row | Molecule | Inhibition rate (%) ADP aggregation (platelet aggregation; compound 10⁻⁵ M) [%] | Inhibition rate (%) PAF aggregation (platelet aggregation; compound 10⁻⁵ M) [%] | Inhibition rate (%) ADP aggregation (platelet aggregation; compound 10⁻⁶ M) [%] | Inhibition rate (%) Collagen aggregation (platelet aggregation; compound 10⁻⁶ M) [%] | Inhibition rate (%) ADP aggregation (platelet aggregation; compound 10⁻⁷ M) [%] | Inhibition rate (%) Collagen aggregation (platelet aggregation; compound 10⁻⁷ M) [%] | Inhibition rate (%) (Slc-ddy male mice) | Contractive force ([1]; compound 10⁻⁷ M) | Contractive force ([1]; compound 10⁻⁸ M) | Contractive force ([1]; compound 10⁻⁹ M) | Inhibition rate (%) (Slc: ddy male mice)
1 | 2,6-dimethyl-3-methoxycarbonyl-5-{4-(6-oxo-1,4,5,6-tetrahydropyridazinon-3-yl)phenyl}aminocarbonyl-4-[3-{2-(4-nitro)phenyl)ethynyl]phenyl-1,4-dihydropyridine [Compound 4] | 91 | 64 | 58 | 92 | 22 | 24 | 13.2 | 13.2 | 71.5 | 93.2 | 
2 | 2,6-dimethyl-3-methoxycarbonyl-5-{4-(6-oxo-1,4,5,6-tetrahydropyridazinon-3-yl)phenyl}aminocarbonyl-4-{3-(1-heptyn-1-yl)}phenyl-1,4-dihydropyridine [Compound 3] | 87 | 65 | 59 | 93 | 18 | 28 |  | 12.5 | 68.3 | 92.4 | 
3 | 2,6-dimethyl-3-methoxycarbonyl-5-{4-(6-oxo-1,4,5,6-tetrahydropyridazinon-3-yl)phenyl}aminocarbonyl-4-{3-(6-morpholino-1-hexyn-1-yl)}phenyl-1,4-dihydropyridine [Compound 5] | 89 | 59 | 61 | 89 | 20 | 26 | 3.2 |  |  |  | 
4 | 2,6-dimethyl-4-(3-ethynylphenyl)-3-methoxycarbonyl-5-{4-(4-methyl-6-oxo-1,4,5,6-tetrahydropyridazinon-3-yl)phenyl}aminocarbonyl-1,4-dihydropyridine [Compound 16] | 88 | 66 | 65 | 97 | 19 | 25 | 3.4 | 17.9 | 86.4 | 105.3 | 
5 | 2,6-dimethyl-4-(3-ethynylphenyl)-3-methoxycarbonyl-5-{4-(5-methyl-6-oxo-1,4,5,6-tetrahydropyridazinon-3-yl)phenyl}aminocarbonyl-1,4-dihydropyridine [Compound 15] | 88 | 40 | 47 | 96 | 16 | 28 | 5.2 | 9.8 | 68.3 | 85.6 | 98.1
6 | 4-{3-(2-tert-butoxycarbonyl)ethynyl}phenyl-2,6-dimethyl-5-{4-(6-oxo-1,4,5,6-tetrahydropyridazinon-3-yl)phenyl}aminocarbonyl-3-methoxycarbonyl-1,4-dihydropyridine [Compound 8] |  |  |  |  |  |  | 12.8 |  |  |  | 75.4
7 | C#Cc1ccc(OC)c(C2C(C(=O)Nc3ccc(C4=NNC(=O)CC4)cc3)=C(C)NC(C)=C2C(=O)OCC)c1 (stereo not shown) [Compound 18, 2,6-dimethyl-4-(3-ethynyl-6-methoxyphenyl)-3-ethoxycarbonyl-5-{4-(6-oxo-1,4,5,6-tetrahydropyridazinon-3-yl)phenyl}aminocarbonyl-1,4-dihydropyridine] | 82 | 61 | 61 | 100 | 19 | 30 |  | 16.3 | 90.5 | 111.2 | 
8 | C#Cc1cccc(C2C(C(=O)Nc3ccc(C4=NNC(=O)CC4CC)cc3)=C(C)NC(C)=C2C(=O)OC)c1 (stereo not shown) [Compound 19, 2,6-dimethyl-4-(3-ethynylphenyl)-5-{4-(4-ethyl-6-oxo-1,4,5,6-tetrahydropyridazinon-3-yl)phenyl} aminocarbonyl-3-methoxycarbonyl-1,4-dihydropyridine] | 83 | 38 | 63 | 91 | 20 | 28 | 5.6 | 14.9 | 84.9 | 101.1 | 92.6
9 | C#Cc1cccc(C2C(C(=O)Nc3ccc(C4=NNC(=O)CC4)cc3)=C(C)NC(C)=C2C(=O)OCC)c1 (stereo not shown) [Compound 20, 2,6-dimethyl-4-(3-ethynylphenyl)-3-ethoxycarbonyl-5-{4-(6-oxo-1,4,5,6-tetrahydropyridazinon-3-yl)phenyl}aminocarbonyl-1,4-dihydropyridine] | 93 | 70 | 68 | 95 | 20 | 23 |  |  |  |  | 
10 | C#Cc1cccc(C2C(C(=O)Nc3ccc(C4=NNC(=O)CC4)cc3)=C(C)NC(C)=C2C(=O)OCCOC)c1 (stereo not shown) [Compound 22, 2,6-dimethyl-4-(3-ethynylphenyl)-3-methoxyethoxycarbonyl-5-{4-(6-oxo-1,4,5,6-tetrahydropyridazinon-3-yl)phenyl}aminocarbonyl-1,4-dihydropyridine] | 86 | 48 | 55 | 100 | 14 | 29 |  |  |  |  | 
11 | C#Cc1cccc(C2C(C(=O)Nc3ccc(C4=NNC(=O)CC4C)cc3)=C(C)NC(N)=C2C(=O)OCC)c1 (stereo not shown) [Compound 23, 2-amino-4-(3-ethynylphenyl)-3-ethoxycarbonyl-6-methyl-5-{4-(6-oxo-4-methyl-1,4,5,6-tetrahydropyridazinon-3-yl)phenyl}aminocarbonyl-1,4-dihydropyridine] | 86 | 47 | 56 | 100 | 18 | 30 |  |  |  |  | 91.7
